According to patent publication US10299502B2, “Method for producing an extract of a matrix of vegetable origin with a non-ionic amphiphilic compound as extraction adjuvant in an aqueous medium” (PIERRE FABRE DERMO-COSMETIQUE, priority 2015, dated 2019):

What was measured:
[1] = Recovery of extracted α-mangostin by precipitation on dilution; format: physicochemical
Source text: The extract thus obtained may also be diluted in a volume of water optionally supplemented with one or more adjuvants selected from salts, acids or bases, so as to be at a final concentration of non-ionic amphiphilic compound below the sufficient concentration defined above. Thus, it is possible to recover the lipophilic compounds by precipitation and solid-liquid separation such as filtration or centrifugation.
At 7% amyl xyloside, 100% of the α-mangostin extracted precipitates.

[2] = Solubilization curves (Sudan red, α-mangostin) to determine the minimum hydrotrope concentration; format: physicochemical; details: deduced from solubilization curves in aqueous solution
Protocol: The term “minimum hydrotrope concentration” refers to the concentration above which these non-ionic amphiphilic compounds begin to form aggregates, i.e., new microenvironments with physical properties different from those observed when the compound is diluted, and different from micellar behavior. This minimum hydrotrope concentration is specific to each non-ionic amphiphilic compound and generally has the order of magnitude of the molarity. It can be determined by several physicochemical methods, such as by measuring surface tension, conductivity or dynamic and static light scattering (Self-association of nicotinamide in aqueous solution: Light-scattering and vapor pressure osmometry studies (1996) 85(8): 848-853), or quite simply by establishing a solubilization curve of a lipophilic compound (solubilized solute content as a function of concentration of non-ionic amphiphilic compound). Sudan red, a lipophilic dye easily measured by spectrophotometry, can be used as reference. […]
The solubilization curves of Sudan red in aqueous solutions of various non-ionic amphiphilic compounds at different concentrations were prepared. After saturation of the solutions with Sudan red and filtration, the Sudan red content solubilized in each solution is measured after dilution by UV spectrophotometry at 476 nm. […]

Compound | % of α-mangostin recovered by precipitation/α-mangostin extracted ([1]; extraction concentration 59%, concentration after dilution 24%) [%] | MHC (minimum hydrotrope concentration) [2] | % of α-mangostin recovered by precipitation/α-mangostin extracted ([1]; extraction concentration 40%, concentration after dilution 7%) [%] | % of α-mangostin recovered by precipitation/α-mangostin extracted ([1]; extraction concentration 40%, concentration after dilution 7%, listed as amyl xyloside) [%] | % of α-mangostin recovered by precipitation/α-mangostin extracted ([1]; extraction concentration 40%, concentration after dilution 15%) [%] | % of α-mangostin recovered by precipitation/α-mangostin extracted ([1]; extraction concentration 40%, concentration after dilution 15%, listed as amyl xyloside)
CC(C)(O)CCO [Isopentyldiol, 3-methyl-1,3-butanediol] | 66 |  |  |  |  | 
amyl xyloside |  | 5-10% | 100 | 100 | 12 | little α-mangostin precipitates
